Blank lines part the entries; values can stand above or below the compound they belong to.
Test: photoluminescence quantum yield (fraction); solvent given as SMILES

- photoluminescence quantum yield (in CC(C)(C)O): 0.12
- photoluminescence quantum yield (in CC(C)CO): 0.12
- photoluminescence quantum yield (in CC(C)O): 0.11
- photoluminescence quantum yield (in CCCCO): 0.13
- photoluminescence quantum yield (in CCCO): 0.16
- photoluminescence quantum yield (in CCO): 0.19
- photoluminescence quantum yield (in CN(C)C=O): 0.04
- photoluminescence quantum yield (in CNC=O): 0.08
- photoluminescence quantum yield (in CO): 0.23
- photoluminescence quantum yield (in NC=O): 0.31
- photoluminescence quantum yield (in O): 0.54
SMILES: COCCOCCOCCOc1cc(C=O)c(OCCOCCOCCOC)cc1C=O

SMILES: CC(C)(C)c1ccc(-c2sc3c(-c4ccc(C(C)(C)C)cc4)c4n(c3c2-c2ccc(C(C)(C)C)cc2)[B-](F)(F)[N+]2=Cc3c(-c5ccc(C(C)(C)C)cc5)c5sc(-c6ccc(C(C)(C)C)cc6)c(-c6ccc(C(C)(C)C)cc6)c5n3[B-](F)(F)[N+]2=C4)cc1
- photoluminescence quantum yield (in CC#N): 0.49
- photoluminescence quantum yield (in CCCCCC): 0.64
- photoluminescence quantum yield (in CN(C)C=O): 0.45
- photoluminescence quantum yield (in Cc1ccccc1): 0.59
- photoluminescence quantum yield (in ClCCl): 0.6

- photoluminescence quantum yield (in ClCCl): 0.56
SMILES: CCc1cccc(CC)c1-c1c2ccccc2c(-c2c(CC)cccc2CC)c2cc3ccccc3cc12

- photoluminescence quantum yield (in CC#N): 0.13
SMILES: Cc1ccc(-c2ccc(/C=C/c3ccc(Br)n3C)cn2)nc1

- photoluminescence quantum yield (in CC#N): 0.11
SMILES: c1cc2oc3cccc4oc5cccc6oc(c1)c2[c+](c34)c65

- photoluminescence quantum yield (in C1CCOC1): 0.0075
- photoluminescence quantum yield (in CC#N): 0.018
- photoluminescence quantum yield (in CCO): 0.023
- photoluminescence quantum yield (in CN(C)C=O): 0.0037
- photoluminescence quantum yield (in CO): 0.029
- photoluminescence quantum yield (in CS(C)=O): 0.0054
SMILES: CCOC(=O)c1sc(SC)c2c(=O)[nH]nnc12

SMILES: COCCC1=Cc2nc1ccc1[nH]c(cc1CCOC)c1nc(c(N)cc3[nH]c2cc3CCOC)C(CCOC)=C1
- photoluminescence quantum yield (in Cc1ccccc1): 0.04

- photoluminescence quantum yield (in ClCCl): 0.49
SMILES: O=c1oc2ccccc2cc1-c1ccc(-c2ccc(-c3cc4ccccc4oc3=O)cc2)cc1

- photoluminescence quantum yield (in C1CCCCC1): 0.23
- photoluminescence quantum yield (in CCOC(C)=O): 0.18
- photoluminescence quantum yield (in CO): 0.16
SMILES: c1ccc2cc(-n3cnc4ccccc43)ccc2c1

- photoluminescence quantum yield (in CC1CCCCC1): 0.51
- photoluminescence quantum yield (in CC#N): 0.35
- photoluminescence quantum yield (in CO): 0.37
SMILES: COC(=O)C(NC(=O)OC(C)(C)C)c1ccc2oc(-c3cc(OC)ccc3OC)nc2c1 (centres undefined)

- photoluminescence quantum yield (in CC1CCCCC1): 0.43
- photoluminescence quantum yield (in CC#N): 0.35
SMILES: C(=C\c1c2ccccc2cc2ccccc12)/c1cccc2ccccc12

SMILES: Cn1cc(-c2nc3ccccc3nc2/C=C/N2CCCC2)c2ccccc21
- photoluminescence quantum yield (in C1CCCCC1): 0.126
- photoluminescence quantum yield (in C1CCOC1): 0.444
- photoluminescence quantum yield (in CC#N): 0.43
- photoluminescence quantum yield (in CC(C)=O): 0.456
- photoluminescence quantum yield (in CCO): 0.048
- photoluminescence quantum yield (in CO): 0.012
- photoluminescence quantum yield (in CS(C)=O): 0.496
- photoluminescence quantum yield (in Cc1ccccc1): 0.375
- photoluminescence quantum yield (in ClCCl): 0.579

- photoluminescence quantum yield (in C1CCCCC1): 1
SMILES: CCCC1(CCC)c2cc(-c3ccc(C(C)(C)C)cc3)ccc2-c2ccc(-c3ccc4c(c3)C(CCC)(CCC)c3cc(-c5ccc6c(c5)C(CCC)(CCC)c5cc(-c7ccc8c(c7)C(CCC)(CCC)c7cc(-c9ccc(C(C)(C)C)cc9)ccc7-8)ccc5-6)ccc3-4)cc21

- photoluminescence quantum yield (in CCCCCC): 0.43
- photoluminescence quantum yield (in CO): 0.54
- photoluminescence quantum yield (in ClCCl): 0.34
SMILES: CC(C)(C)c1ccc2ccc3c(C(C)(C)C)ccc4ccc1c2c43

SMILES: CC1(C)c2ccccc2N(c2ccc3c(c2)-c2cc(N4c5ccccc5C(C)(C)c5ccccc54)ccc2P3(=O)c2ccccc2)c2ccccc21
- photoluminescence quantum yield (in Cc1ccccc1): 0.55
- photoluminescence quantum yield (in c1ccc2c(c1)c1ccccc1n2-c1ccc(-c2ccc(-n3c4ccccc4c4ccccc43)cc2)cc1): 0.56

- photoluminescence quantum yield (in ClCCl): 0.1
SMILES: C[Si]1(C)c2ccc(-c3ccc(-c4cccs4)s3)cc2C=Cc2cc(-c3ccc(-c4cccs4)s3)ccc21

- photoluminescence quantum yield (in CO): 0.16
SMILES: COc1c(/C=N/Nc2ccc(C#N)cc2)ccc2ccccc12

- photoluminescence quantum yield (in ClC(Cl)Cl): 0.14
SMILES: CCCCCCN1C(=O)c2cccc3cc(/N=C\c4ccc(N(c5ccccc5)c5ccccc5)cc4)cc(c23)C1=O

- photoluminescence quantum yield (in ClCCl): 0.482
SMILES: CCn1c2cc(-c3ccc(-c4cccs4)s3)ccc2c2ccc(-c3ccc(-c4cccs4)s3)cc21
